Consider 72 compounds from patent publication US8017629B2, “Compounds and uses thereof in modulating amyloid β” (Neurogenetic Pharmaceuticals, Inc., priority 2003, dated 2011).

Some results are limits rather than exact numbers.

In the test the test system is Aβ42 levels in the extracellular medium. The test can be described thus: FRET (HTRF) assay, Aβ42 level of the extracellular medium of SH-SY5Y-APP cells. The format is cell-based. The conditions noted are these: Homo sapiens, concentration at which reduction of Aβ42 level was half of the maximum reduction, read-out: Ab42 Potency. On the procedure:
Compounds were evaluated for activity in modulating Aβ42 and Aβ40 levels in the extracellular medium using a homogeneous time-resolved fluorescence (HTRF) assay as follows.
For the HTRF assay, either 5 or 10 μl of supernatant from treated cells was added to 10 or 15 μl of labeled antibody pairs, for a total volume of 20 μl, and incubated for 20-24 hours at 4° C. The labeled antibody pairs were either 8000 pg B436-XL665 and 400 pg B113 Europium, for assessing Aβ40 levels, or 8000 pg B436-XL665 and 400 pg A387 Europium, for assessing Aβ42 levels, diluted in 50 mM NaPO4, 0.2% BSA, 0.5M KF, pH 7. The fluorescence was read on a BMG Rubystar at 620 nm and 665 nm.
(In general: In TR-FRET formats the signal depends on donor and acceptor labels being close together.)
Consider `CCN(c1ccc(N2CCOCC2)cc1)c1nc(-c2ccc(-n3ccnc3)cc2)cs1` [Compound 180], for which the EC50 lay in the range of 1.1 to 5 µM.
Consider `CS(=O)(=O)c1ccc(-c2csc(Nc3c(Cl)cc(Cl)cc3Cl)n2)cc1` [Compound 214], for which the EC50 was 10.1 to 30 µM.
As to `CN(C)S(=O)(=O)c1ccc(-c2csc(Nc3ccc4[nH]cnc4c3)n2)cc1` [Compound 157], the EC50 lay in the range of 10.1 to 30 µM.
As to `CCN(CC)c1ccc(Nc2nc(-c3ccc(-n4cnc(C)c4)cc3C(F)(F)F)cs2)c(C)c1` [Compound 227], the EC50 lay in the range of 5.1 to 10 µM.
For the compound `CNCCN(C)c1ccc(Nc2nc(-c3ccc(-n4ccnc4)cc3)cs2)c(C(F)(F)F)c1` [Compound 224], the EC50 was 1.1 to 5 µM.
Consider `CCN(CC)c1ccc(Nc2nc(-c3ccc(N4CCN(C)CC4)nc3)cs2)c(C)c1` [Compound 329], for which the EC50 is 10.1 to 30 µM.
Regarding `COc1cc(Nc2nc(-c3ccc(N4CCN(C)CC4)cc3)cs2)cc(OC)c1OC` [Compound 116], the EC50 lay within 1.1 to 5 µM.
For `CN1CCN(c2ccc(-c3csc(Nc4ccc5[nH]cnc5c4)n3)cc2)CC1` [Compound 155], the EC50 fell in the range of 1.1 to 5 µM.
`CN(C)CCNc1ccc(Nc2nc(-c3ccc(-n4ccnc4)cc3)cs2)c(C(F)(F)F)c1` [Compound 217]: the EC50 fell in the range of 1.1 to 5 µM.
`COc1cc(C)c(Nc2nc(-c3ccc(-n4cc(C)cn4)cc3)cs2)cc1C(C)C` [Compound 308]: the EC50 fell in the range of 0.2 to 1 µM.
In the case of `CCOc1cc(C)c(Nc2nc(-c3ccc(N4CCN(C)CC4)cc3)cs2)cc1C` [Compound 322], the EC50 was in the range of 1.1 to 5 µM.
Turning to `Cc1cc(C)c(Nc2nc(-c3ccc(-n4cnc(Br)c4)cc3)cs2)c(C)c1` [Compound 251], the EC50 was 1.1 to 5 µM.
On to `CCN(CC1CC1)c1cc(Nc2nc(-c3ccc(-n4cnc(C)c4)cc3)cs2)c(C)cc1C` [Compound 350], for which the EC50 is less than 0.2 µM.
To `COc1ccc(Nc2nc(-c3ccc4c(c3)CCC(=O)N4)cs2)c(OC)c1` [Compound 120] belongs 10.1 to 30 µM; to `Oc1ccc(Nc2nc(-c3ccc4ccccc4c3)cs2)cc1` [Compound 124], 5.1 to 10 µM; to `Cc1ccc(N(C)CC2CC2)cc1Nc1nc(-c2ccc(-n3ccnc3)cc2)cs1` [Compound 304], less than 0.2 µM.
On to `Cc1ccc(Nc2nc(-c3ccc(C#N)cc3)cs2)cc1Cl` [Compound 193], for which the EC50 is 10.1 to 30 µM.
Turning to `Cc1cn(-c2ccc(-c3csc(Nc4cc(N(C)CC5CC5)ccc4C)n3)cc2)cn1` [Compound 305], the EC50 is less than 0.2 µM.
For the compound `Cc1ccc(-n2cccc2)cc1Nc1nc(-c2ccc(-n3cnc(Br)c3)cc2)cs1` [Compound 279], the EC50 lay within 0.2 to 1 µM.
As for `Cc1ccc(Nc2nc(-c3ccc(Br)cc3)co2)c(C)c1` [Compound 344], the figure is 1.1 to 5 µM.
As to `CN1CCN(c2ccc(-c3csc(Nc4ccc5c(c4)OCO5)n3)cc2)CC1` [Compound 115], the EC50 was in the range of 1.1 to 5 µM.
As for `CC(C)N1CCN(C(=O)c2ccc(Nc3nc(-c4ccc(N5CCN(C)CC5)cc4)cs3)cc2)CC1` [Compound 192], the EC50 lay in the range of 5.1 to 10 µM.
On to `CCN(CC)c1ccc(Nc2nc(-c3ccc(-n4cnc(Br)c4)cc3)cs2)c(C)c1` [Compound 199], for which the EC50 was in the range of 0.2 to 1 µM.
Take `CCN(CC)c1ccc(C)c(Nc2nc(-c3ccc(-n4cc(C)cn4)cc3)cs2)c1` [Compound 307]: the EC50 is 1.1 to 5 µM.
Consider `Cc1cn(-c2ccc(-c3csc(Nc4cc5cn[nH]c5cc4C)n3)cn2)cn1` [Compound 331], for which the EC50 is 5.1 to 10 µM.
As for `CCc1cc(N2CCOCC2)ccc1Nc1nc(-c2ccc(-n3ccnc3)cc2)cs1` [Compound 239], the figure is 1.1 to 5 µM; as for `CCN(CC)c1cc(Nc2nc(-c3ccc(-n4ccnc4)cc3)cs2)c(C)cc1C` [Compound 291], less than 0.2 µM; as for `CCN(CC)c1cc(Nc2nc(-c3ccc(-n4cnc(C)c4)nc3)cs2)c(C)cc1C` [Compound 289], less than 0.2 µM.
On to `CCN(CC)c1ccc(C)c(Nc2nc(-c3ccc(-c4ccoc4)cc3)cs2)c1` [Compound 311], for which the EC50 lay in the range of 1.1 to 5 µM.
On to `COc1ccc(-c2csc(Nc3ccc4c(c3)OCO4)n2)c(OC)c1` [Compound 104], for which the EC50 lay within 1.1 to 5 µM.
Turning to `CCN(CCO)c1ccc(Nc2nc(-c3ccc(-n4cnc(C)c4)cc3C(F)(F)F)c(C)s2)c(C)c1` [Compound 206], the EC50 is 5.1 to 10 µM.
As for `CCN(CC)c1ccc(-c2csc(Nc3ccc(OC)cc3OC)n2)cc1` [Compound 122], the figure is 1.1 to 5 µM.
In the case of `Cc1cn(-c2ccc(-c3csc(Nc4cc(CO)ccc4C)n3)cc2)cn1` [Compound 299], the EC50 is 0.2 to 1 µM.
As for `c1cc(Nc2nc(-c3ccc4c(c3)OCO4)cs2)c2cn[nH]c2c1` [Compound 172], the figure is 1.1 to 5 µM; as for `Cc1cn(-c2ccc(-c3csc(Nc4cc(N(C)C)ccc4C)n3)cn2)cn1` [Compound 282], less than 0.2 µM; as for `CN1CCN(c2ccc(-c3csc(Nc4cccc(Cl)c4)n3)cc2)CC1` [Compound 151], 0.2 to 1 µM.
Take `COc1ccc(Nc2nc(-c3ccc(-n4ccnc4)cc3)co2)cc1` [Compound 340]: the EC50 lay within 1.1 to 5 µM.
To `Cc1cc(C)c(Nc2nc(-c3ccc(-n4cnc(C)c4)cc3)cs2)c(C)c1` [Compound 250] belongs 0.2 to 1 µM.
Consider `COc1cc(C)c(Nc2nc(-c3ccc(N4CCN(C)CC4)cc3)cs2)cc1C(C)C` [Compound 321], for which the EC50 was in the range of 0.2 to 1 µM.
`CCN(CC)c1cc(C)c(Nc2nc(-c3ccc(-n4cnc(C)c4)nc3)cs2)cc1C` [Compound 286]: the EC50 was less than 0.2 µM.
To `CCN(CC)c1cc(Nc2nc(-c3ccc(-n4cnc(C)c4)cc3)cs2)c(C)cc1C` [Compound 288] belongs less than 0.2 µM; to `CCN(CC)c1ccc(Nc2nc(-c3ccc(-n4ccnc4)cc3)cs2)c(C(F)(F)F)c1` [Compound 218], 1.1 to 5 µM.
In the case of `NC(=O)c1ncn(-c2ccc(-c3csc(Nc4ccc(N5CCOCC5)c(Cl)c4)n3)cc2)n1` [Compound 233], the EC50 was in the range of 1.1 to 5 µM.
In the case of `COc1cc(C)c(Nc2nc(-c3ccc(-n4cnc(C)c4)c(F)c3)cs2)cc1C(C)C` [Compound 310], the EC50 is less than 0.2 µM.
For the compound `CCN(CC)c1ccc(Nc2nc(-c3ccc(-n4ccnc4C)cc3)cs2)c(C)c1` [Compound 189], the EC50 lay within 1.1 to 5 µM.
As for `COc1ccc(C)c(Nc2nc(-c3ccc(-n4ccnc4)cc3)cs2)c1` [Compound 351], the EC50 is less than 0.2 µM.
With `CCc1ccc(Nc2nc(-c3ccc(N4CCN(C)CC4)cc3)cs2)cc1` [Compound 132], the EC50 fell in the range of 10.1 to 30 µM.
As to `CSc1cccc(Nc2nc(-c3ccc4c(c3)OCO4)cs2)c1` [Compound 183], the EC50 was in the range of 10.1 to 30 µM.
As to `CSc1cccc(Nc2nc(-c3ccc(N4CCN(C)CC4)cc3)cs2)c1` [Compound 145], the EC50 fell in the range of 1.1 to 5 µM.
In the case of `Cc1cc(C)c(Nc2nc(-c3ccc(-n4cnc(Br)c4)cc3)cs2)cc1C` [Compound 236], the EC50 lay within 0.2 to 1 µM.
Take `CCc1ccc(C)nc1Nc1ccc(Nc2nc(-c3ccc(-n4ccnc4)cc3)cs2)c(C)c1` [Compound 209]: the EC50 is 5.1 to 10 µM.
In the case of `COc1cc(C)c(Nc2nc(-c3ccc(-n4cnc(C)c4)nc3)cs2)cc1C(C)C` [Compound 296], the EC50 is less than 0.2 µM.
In the case of `Cc1cccc(Nc2nc(-c3ccc(N4CCN(C)CC4)cc3)cs2)c1` [Compound 226], the EC50 is 1.1 to 5 µM.
Regarding `CCCN(c1nc(-c2ccc(-n3ccnc3)cc2)cs1)c1ccc(N(CC)CC)cc1C` [Compound 175], the EC50 lay within 10.1 to 30 µM.
To `COc1cc(Nc2nc(-c3ccc(O)c(O)c3)cs2)cc(OC)c1OC` [Compound 112] belongs 10.1 to 30 µM.
For `Cc1cc(NCCN(C)C)ccc1Nc1nc(-c2ccc(-n3ccnc3)cc2)cs1` [Compound 202], the EC50 fell in the range of 1.1 to 5 µM.
For the compound `Cc1cn(-c2ccc(-c3csc(Nc4ccc(N5CC(C)OC(C)C5)cc4)n3)cc2)cn1` (stereo not drawn) [Compound 260], the EC50 lay within 1.1 to 5 µM.
As for `Cc1cn(-c2ncc(-c3csc(Nc4cc(C)c(C)cc4C)n3)cn2)cn1` [Compound 349], the figure is less than 0.2 µM.
With `c1cc2c(cc1Nc1nc(-c3ccc(N4CCN(CC5CC5)CC4)cc3)cs1)OCO2` [Compound 164], the EC50 is 5.1 to 10 µM.
As for `Cc1cn(-c2ccc(-c3csc(Nc4cc(CO)ccc4C)n3)cn2)cn1` [Compound 300], the figure is 0.2 to 1 µM.
Consider `COc1cccc(Nc2nc(-c3ccc(-n4ccnc4)cc3)cs2)c1` [Compound 181], for which the EC50 fell in the range of 10.1 to 30 µM.
Consider `CCN(CC)c1ccc(Nc2nc(-c3ccc(-n4cc(C)nc4C)cc3)cs2)c(C)c1` [Compound 249], for which the EC50 was 1.1 to 5 µM.
`CCN(CC)c1ccc(C)c(Nc2nc(-c3ccc(-n4cc(C)nn4)cc3)cs2)c1` [Compound 346]: the EC50 is less than 0.2 µM.
Take `CCN(C)c1cc(Nc2nc(-c3ccc(-n4ccnc4)cc3)cs2)c(C)cc1C` [Compound 334]: the EC50 is less than 0.2 µM.
`CCN(CC)c1ccc(Nc2nc(-c3ccc(-c4c[nH]c(C)n4)cc3)cs2)c(C)c1` [Compound 248]: the EC50 lay within 5.1 to 10 µM.
As for `Cc1cn(-c2ccc(-c3csc(Nc4cc(N5CCSCC5)ccc4C)n3)cn2)cn1` [Compound 281], the figure is less than 0.2 µM; as for `CCN(CC)c1ccc(C)c(Nc2nc(-c3cnc(-n4cnc(C)c4)nc3)cs2)c1` [Compound 341], less than 0.2 µM; as for `CN1CCN(c2ccc(-c3csc(Nc4ccc5c(cnn5C)c4)n3)cc2)CC1` [Compound 140], 5.1 to 10 µM.
`CCc1ccc(C)nc1Nc1ccc(C)c(Nc2nc(-c3ccc(-n4ccnc4)cc3)cs2)c1` [Compound 257]: the EC50 was 5.1 to 10 µM.
`c1cc(Nc2nc(-c3ccncc3)cs2)c2cn[nH]c2c1` [Compound 170]: the EC50 was 1.1 to 5 µM.
As for `Cc1ccc(C)c(Nc2nc(-c3ccc(-n4cnc(Br)c4)cc3)cs2)c1` [Compound 316], the figure is less than 0.2 µM.
Consider `CCN(CC)c1ccc(Nc2nc(-c3cnc(-n4cnc(C)c4)nc3)cs2)c(C)c1` [Compound 342], for which the EC50 was less than 0.2 µM.
